Assay results: US20210070748A1, “INHIBITORS OF BRUTONS TYROSINE KINASE” (Pharmacyclics LLC, priority 2015, published 2021)

How the values were obtained:
Assay type in all cases: biochemical
Settings in all cases: D-compounds panel data; 1 μM ATP
[1] = target: T1, ITK (Homo sapiens, UniProt Q08881); test: Inhibition of a panel of kinases, in vitro HotSpot kinase assay: ITK
T1 sequence (Q08881 1-620): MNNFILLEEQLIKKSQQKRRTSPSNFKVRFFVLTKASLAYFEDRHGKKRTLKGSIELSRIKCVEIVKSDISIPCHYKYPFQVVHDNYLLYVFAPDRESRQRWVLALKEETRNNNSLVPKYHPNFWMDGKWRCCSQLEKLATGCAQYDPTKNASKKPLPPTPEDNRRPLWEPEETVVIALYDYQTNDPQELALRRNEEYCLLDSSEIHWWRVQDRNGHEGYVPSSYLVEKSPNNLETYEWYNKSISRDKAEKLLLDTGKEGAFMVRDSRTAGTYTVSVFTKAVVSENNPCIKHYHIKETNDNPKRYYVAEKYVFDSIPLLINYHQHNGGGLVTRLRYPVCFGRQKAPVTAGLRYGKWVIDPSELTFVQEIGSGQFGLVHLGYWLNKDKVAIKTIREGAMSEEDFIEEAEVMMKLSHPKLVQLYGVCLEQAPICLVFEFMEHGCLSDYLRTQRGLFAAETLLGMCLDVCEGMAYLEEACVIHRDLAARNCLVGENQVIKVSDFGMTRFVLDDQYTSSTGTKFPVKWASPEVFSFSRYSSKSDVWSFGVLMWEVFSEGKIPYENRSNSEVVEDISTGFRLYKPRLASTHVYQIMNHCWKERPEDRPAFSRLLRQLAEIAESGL
Procedure: (§1) The degree of inhibition of a panel of kinases is determined using the in vitro HotSpot kinase assay (purified enzymes, ^33P-ATP, an appropriate substrate and 1 μM ATP).

[2] = target: EGFR (Homo sapiens, UniProt P00533); test: Inhibition of a panel of kinases, in vitro HotSpot kinase assay: EGFR
Procedure: as §1

[3] = target: T2, TEC (Homo sapiens, UniProt P42680); test: Inhibition of a panel of kinases, in vitro HotSpot kinase assay: TEC
T2 sequence (P42680 1-631): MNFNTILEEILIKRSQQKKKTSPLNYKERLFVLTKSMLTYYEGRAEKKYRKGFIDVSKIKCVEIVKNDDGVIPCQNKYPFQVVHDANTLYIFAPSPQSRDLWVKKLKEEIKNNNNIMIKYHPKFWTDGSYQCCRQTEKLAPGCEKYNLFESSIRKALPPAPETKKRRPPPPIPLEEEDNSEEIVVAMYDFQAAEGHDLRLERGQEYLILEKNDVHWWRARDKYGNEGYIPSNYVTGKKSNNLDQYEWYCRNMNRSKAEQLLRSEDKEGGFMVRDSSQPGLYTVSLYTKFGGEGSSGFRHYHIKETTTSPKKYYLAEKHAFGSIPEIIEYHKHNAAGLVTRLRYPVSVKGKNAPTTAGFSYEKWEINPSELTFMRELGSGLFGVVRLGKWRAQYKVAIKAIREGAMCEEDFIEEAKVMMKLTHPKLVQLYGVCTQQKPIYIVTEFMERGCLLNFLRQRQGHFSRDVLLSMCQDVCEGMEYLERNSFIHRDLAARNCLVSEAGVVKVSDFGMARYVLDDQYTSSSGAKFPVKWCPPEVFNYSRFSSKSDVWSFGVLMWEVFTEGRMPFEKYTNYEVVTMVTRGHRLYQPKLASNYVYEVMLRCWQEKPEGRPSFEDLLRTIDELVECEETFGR
Procedure: as §1

Chain of EGFR (P00533 25-1210): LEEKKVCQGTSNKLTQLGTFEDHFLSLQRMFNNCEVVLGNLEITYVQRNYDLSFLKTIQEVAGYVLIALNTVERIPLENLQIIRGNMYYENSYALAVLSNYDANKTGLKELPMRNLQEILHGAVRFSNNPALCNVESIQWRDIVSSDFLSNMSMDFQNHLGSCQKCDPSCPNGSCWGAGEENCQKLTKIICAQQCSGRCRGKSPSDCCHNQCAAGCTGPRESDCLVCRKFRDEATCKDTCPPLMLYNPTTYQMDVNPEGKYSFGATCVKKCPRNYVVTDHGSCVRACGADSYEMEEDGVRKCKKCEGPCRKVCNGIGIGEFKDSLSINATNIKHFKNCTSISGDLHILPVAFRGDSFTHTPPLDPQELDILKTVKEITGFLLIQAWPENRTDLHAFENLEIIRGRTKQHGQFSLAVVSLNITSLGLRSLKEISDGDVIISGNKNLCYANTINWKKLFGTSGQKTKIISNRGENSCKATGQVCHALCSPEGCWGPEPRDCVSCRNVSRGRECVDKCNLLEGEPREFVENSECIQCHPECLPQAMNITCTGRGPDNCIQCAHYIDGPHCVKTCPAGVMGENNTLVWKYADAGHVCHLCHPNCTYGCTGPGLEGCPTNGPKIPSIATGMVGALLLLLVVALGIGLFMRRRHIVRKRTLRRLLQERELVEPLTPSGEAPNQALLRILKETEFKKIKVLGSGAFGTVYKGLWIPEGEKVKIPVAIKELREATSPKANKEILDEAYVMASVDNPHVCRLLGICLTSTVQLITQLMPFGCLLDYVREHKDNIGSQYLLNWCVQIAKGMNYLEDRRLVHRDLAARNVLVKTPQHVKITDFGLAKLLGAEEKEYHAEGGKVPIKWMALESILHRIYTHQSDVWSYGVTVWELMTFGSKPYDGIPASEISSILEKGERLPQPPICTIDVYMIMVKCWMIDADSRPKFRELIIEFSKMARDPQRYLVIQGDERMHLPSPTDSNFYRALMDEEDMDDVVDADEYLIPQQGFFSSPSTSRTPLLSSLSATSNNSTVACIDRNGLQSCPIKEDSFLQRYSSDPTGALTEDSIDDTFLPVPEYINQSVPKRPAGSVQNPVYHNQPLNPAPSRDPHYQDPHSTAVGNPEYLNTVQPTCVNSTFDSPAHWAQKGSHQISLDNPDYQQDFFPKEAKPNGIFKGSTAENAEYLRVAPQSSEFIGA

Compound	IC50 [1] [nM]	IC50 [2] [nM]	IC50 [3] [nM]
C[C@@H]1[C@H](NC(=O)c2ccc(C(O)C(F)(F)F)cc2)CCCN1c1cnc(C(N)=O)c(Nc2cnn(C)c2)n1 (single isomer, unassigned) [Example D-249]	100 to 1000	1000 to 10000	≤ 10
C[C@@H]1[C@H](NC(=O)c2ccc(C(O)C(F)(F)F)cc2)CCCN1c1cnc(C(N)=O)c(Nc2cnn(C)c2)n1 (single isomer, unassigned) [Example D-250]	100 to 1000	100 to 1000	≤ 10
C[C@@H]1[C@H](NC(=O)c2ccc(C(C)(O)CO)cc2)CCCN1c1cnc(C(N)=O)c(Nc2cnn(C)c2)n1 (single isomer, unassigned) [Example D-256]	100 to 1000	100 to 1000	≤ 10
C[C@@H]1[C@H](NC(=O)c2ccc(C(C)(O)CO)cc2)CCCN1c1cnc(C(N)=O)c(Nc2cnn(C)c2)n1 (single isomer, unassigned) [Example D-265]	100 to 1000	100 to 1000	≤ 10
C[C@@H]1[C@H](NC(=O)c2cc3c(n2C)CC(C)(C)C3)CCCN1c1cnc(C(N)=O)c(Nc2cnn(C)c2)n1 [Example D-19, 3-[(1-methyl-1H-pyrazol-4-yl)amino]-5-[(2R,3R)-2-methyl-3-{1,5,5-trimethyl-1H,4H,5H,6H-cyclopenta[b]pyrrole-2-amido}piperidin-1-yl]pyrazine-2-carboxamide]	100 to 1000	100 to 1000	10 to 100
C[C@@H]1[C@H](NC(=O)c2ccc(C3CC3)cc2Cl)CCCN1c1cnc(C(N)=O)c(Nc2cnn(C)c2)n1 [Example D-20, 5-[(2R,3R)-3-(2-chloro-4-cyclopropylbenzamido)-2-methylpiperidin-1-yl]-3-[(1-methyl-1H-pyrazol-4-yl)amino]pyrazine-2-carboxamide]	1000 to 10000	1000 to 10000	10 to 100
C[C@@H]1[C@H](NC(=O)c2ccc(C3CC3)cn2)CCCN1c1cnc(C(N)=O)c(Nc2cnn(C)c2)n1 [Example D-21, 5-[(2R,3R)-3-(5-cyclopropylpyridine-2-amido)-2-methylpiperidin-1-yl]-3-[(1-methyl-1H-pyrazol-4-yl)amino]pyrazine-2-carboxamide]	100 to 1000	1000 to 10000	10 to 100
C[C@@H]1[C@H](NC(=O)c2ccc(C(C)(C)C)cc2)CCCN1c1cnc(C(N)=O)c(Nc2cnn(C)c2)n1 [Example D-22, 5-[(2R,3R)-3-(4-tert-butylbenzamido)-2-methylpiperidin-1-yl]-3-[(1-methyl-1H-pyrazol-4-yl)amino]pyrazine-2-carboxamide]	1000 to 10000	1000 to 10000	10 to 100
C[C@@H]1[C@H](NC(=O)c2ccc(C3COC3)cc2)CCCN1c1cnc(C(N)=O)c(Nc2cnn(C)c2)n1 [Example D-23, 3-[(1-methyl-1H-pyrazol-4-yl)amino]-5-[(2R,3R)-2-methyl-3-[4-(oxetan-3-yl)benzamido]piperidin-1-yl]pyrazine-2-carboxamide]	100 to 1000	1000 to 10000	≤ 10
C[C@@H]1[C@H](NC(=O)c2ccc(N(C)C)cc2)CCCN1c1cnc(C(N)=O)c(Nc2cnn(C)c2)n1 [Example D-24, 5-[(2R,3R)-3-[4-(dimethylamino)benzamido]-2-methylpiperidin-1-yl]-3-[(1-methyl-1H-pyrazol-4-yl)amino]pyrazine-2-carboxamide]	100 to 1000	1000 to 10000	≤ 10
C[C@@H]1[C@H](NC(=O)c2ccc(C3CC3)cc2C(F)(F)F)CCCN1c1cnc(C(N)=O)c(Nc2cnn(C)c2)n1 [Example D-25, 5-[(2R,3R)-3-[4-cyclopropyl-2-(trifluoromethyl)benzamido]-2-methylpiperidin-1-yl]-3-[(1-methyl-1H-pyrazol-4-yl)amino]pyrazine-2-carboxamide]	1000 to 10000	1000 to 10000	10 to 100
C[C@@H]1[C@H](NC(=O)c2ccc3ncsc3c2)CCCN1c1cnc(C(N)=O)c(Nc2cnn(C)c2)n1 [Example D-243, N-[(2R,3R)-1-{5-carbamoyl-6-[(1-methyl-1H-pyrazol-4-yl)amino]pyrazin-2-yl}-2-methylpiperidin-3-yl]-1,3-benzothiazole-6-carboxamide]	100 to 1000	1000 to 10000	≤ 10
C[C@@H]1[C@H](NC(=O)c2cc(C(C)(C)C)n[nH]2)CCCN1c1cnc(C(N)=O)c(Nc2cnn(C)c2)n1 [Example D-244, 5-[(2R,3R)-3-(3-tert-butyl-1H-pyrazole-5-amido)-2-methylpiperidin-1-yl]-3-[(1-methyl-1H-pyrazol-4-yl)amino]pyrazine-2-carboxamide]	100 to 1000	1000 to 10000	10 to 100
C[C@@H]1[C@H](NC(=O)c2ccc(C3CC3)c(O)c2)CCCN1c1cnc(C(N)=O)c(Nc2cnn(C)c2)n1 [Example D-245, 5-[(2R,3R)-3-(4-cyclopropyl-3-hydroxybenzamido)-2-methylpiperidin-1-yl]-3-[(1-methyl-1H-pyrazol-4-yl)amino]pyrazine-2-carboxamide]	100 to 1000	1000 to 10000	≤ 10
Cc1cc2cc(C(=O)N[C@@H]3CCCN(c4cnc(C(N)=O)c(Nc5cnn(C)c5)n4)[C@@H]3C)ccc2o1 [Example D-246, 3-[(1-methyl-1H-pyrazol-4-yl)amino]-5-[(2R,3R)-2-methyl-3-(2-methyl-1-benzofuran-5-amido)piperidin-1-yl]pyrazine-2-carboxamide]	100 to 1000	1000 to 10000	≤ 10
C[C@@H]1[C@H](NC(=O)c2cc(C(C)(C)C)on2)CCCN1c1cnc(C(N)=O)c(Nc2cnn(C)c2)n1 [Example D-247, 5-[(2R,3R)-3-(5-tert-butyl-1,2-oxazole-3-amido)-2-methylpiperidin-1-yl]-3-[(1-methyl-1H-pyrazol-4-yl)amino]pyrazine-2-carboxamide]	100 to 1000	1000 to 10000	10 to 100
COCCN(C)c1ccc(C(=O)N[C@@H]2CCCN(c3cnc(C(N)=O)c(Nc4cnn(C)c4)n3)[C@@H]2C)cc1 [Example D-248, 5-[(2R,3R)-3-{4-[(2-methoxyethyl)(methyl)amino]benzamido}-2-methylpiperidin-1-yl]-3-[(1-methyl-1H-pyrazol-4-yl)amino]pyrazine-2-carboxamide]	100 to 1000	100 to 1000	≤ 10
C[C@@H]1[C@H](NC(=O)c2ccc(C(C)(C)F)cc2)CCCN1c1cnc(C(N)=O)c(Nc2cnn(C)c2)n1 [Example D-251, 5-[(2R,3R)-3-[4-(2-fluoropropan-2-yl)benzamido]-2-methylpiperidin-1-yl]-3-[(1-methyl-1H-pyrazol-4-yl)amino]pyrazine-2-carboxamide]	100 to 1000	1000 to 10000	≤ 10
C[C@@H]1[C@H](NC(=O)c2cc(C3CC3)n[nH]2)CCCN1c1cnc(C(N)=O)c(Nc2cnn(C)c2)n1 [Example D-252, 5-[(2R,3R)-3-(3-cyclopropyl-1H-pyrazole-5-amido)-2-methylpiperidin-1-yl]-3-[(1-methyl-1H-pyrazol-4-yl)amino]pyrazine-2-carboxamide]	10 to 100	100 to 1000	≤ 10
C[C@@H]1[C@H](NC(=O)c2cc(C3CC3)n(C)n2)CCCN1c1cnc(C(N)=O)c(Nc2cnn(C)c2)n1 [Example D-253, 5-[(2R,3R)-3-(5-cyclopropyl-1-methyl-1H-pyrazole-3-amido)-2-methylpiperidin-1-yl]-3-[(1-methyl-1H-pyrazol-4-yl)amino]pyrazine-2-carboxamide]	100 to 1000	100 to 1000	≤ 10
C[C@@H]1[C@H](NC(=O)c2ccc3c(cnn3C)c2)CCCN1c1cnc(C(N)=O)c(Nc2cnn(C)c2)n1 [Example D-254, N-[(2R,3R)-1-{5-carbamoyl-6-[(1-methyl-1H-pyrazol-4-yl)amino]pyrazin-2-yl}-2-methylpiperidin-3-yl]-1-methyl-1H-indazole-5-carboxamide]	100 to 1000	1000 to 10000	≤ 10
